{"source": "patent US20110294686A1", "about": "“EGFR INHIBITOR THERAPY RESPONSIVENESS” (priority 2008, published 2011)", "key": {"[1]": {"test_system": "Metastatic NSCLC patients", "details": "for Response to gefitinib therapy: metastatic NSCLC"}, "[2]": {"test_system": "chemo-refractory advanced stage NSCLC", "details": "phase II clinical trials; cited from earlier work"}, "[3]": {"details": "EIF3H FISH negative patients (mean <2.75)"}, "[4]": {"details": "EIF3H FISH positive patients (mean ≧2.75)"}, "[5]": {"details": "MYC FISH negative patients (mean <2.79)"}, "[6]": {"details": "MYC FISH positive patients (mean ≧2.79)"}}, "note": "Where two headings read alike, the source gives them in different places.", "data": [{"smiles": "COc1cc2ncnc(Nc3ccc(F)c(Cl)c3)c2cc1OCCCN1CCOCC1", "note": "[gefitinib]", "values": [{"measurement": "response rate (RR)", "setting": "[1]; [3]", "result": 0, "unit": "%"}, {"measurement": "time to progression (TTP)", "setting": "[1]; [3]", "result": 2.7, "unit": "months"}, {"measurement": "response rate (RR)", "setting": "[1]; [4]", "result": 32, "unit": "%"}, {"measurement": "survival (OS)", "setting": "[1]; [4]", "result": 17.8, "unit": "months"}, {"measurement": "time to progression (TTP)", "setting": "[1]; [4]", "result": 4.4, "unit": "months"}, {"measurement": "Response to gefitinib therapy", "setting": "[1]; EIF3H amplified patients (ratio EIF3H/CEP8>2)", "result": 30, "unit": "%"}, {"measurement": "Response to gefitinib therapy", "setting": "[1]; EIF3H non amplified patients", "result": 14, "unit": "%"}, {"measurement": "response rate (RR)", "setting": "[1]; [5]", "result": 0, "unit": "%"}, {"measurement": "time to progression (TTP)", "setting": "[1]; [5]", "result": 2.6, "unit": "months"}, {"measurement": "response rate (RR)", "setting": "[1]; [6]", "result": 31, "unit": "%"}, {"measurement": "time to progression (TTP)", "setting": "[1]; [6]", "result": 4.4, "unit": "months"}, {"measurement": "Response to gefitinib therapy", "setting": "[1]; MYC amplified patients", "result": 25, "unit": "%"}, {"measurement": "Response to gefitinib therapy", "setting": "[1]; MYC non-amplified patients", "result": 14, "unit": "%"}, {"measurement": "patients responding to treatment", "setting": "[2]", "result": "11-20%"}]}]}
